Results from US20220056014A1, “PHENYLPYRROLIDINE COMPOUND AND USE THEREOF” (WUHAN HUMANWELL INNOVATIVE DRUG RESEARCH AND DEVELOPMENT …, priority 2018, published 2022).
Like-named read-outs stand apart in the source and are kept apart here.

Assays:
Rat pharmacokinetic test = format: in vivo, SD rats; details: male, Sprague-Dawley (SD), plasma, oral gavage 10 mg/kg
Protocol: (§1) In the rat pharmacokinetic test, 3 male SD rats (180-240 g) were fasted overnight, and orally administered with 10 mg/kg of compound to be tested. Blood was collected before the administration, and 15 min, 30 min, 1 h, 2 h, 4 h, 8 h, and 24 h hours after the administration. The blood sample was centrifuged at 8000 rpm for 6 min at 4° C., and the plasma was collected and stored at −20° C. The plasma collected at each time point was added and mixed with 3-5 times the amount of acetonitrile solution containing an internal standard, vortexed for 1 min, centrifuged at 13,000 rpm for 10 min at 4° C. The supernatant was taken and mixed with 3 times the amount of water, and an appropriate amount of the mixture was taken for LC-MS/MS analysis. The main pharmacokinetic parameters were analyzed with WinNonlin 7.0 software non-compartmental model.

PDE4B = molecular target: T1, PDE4B (Homo sapiens, UniProt Q07343); assay: PDE4B enzyme activity assay (PDE-Glo Phosphodiesterase Assay Kit); format: biochemical; details: for IC50 (PDE4D)/IC50 (PDE4B): selectivity ratio
T1 construct: purchased Enzo Life Sciences BML-SE522-0020
Protocol: (§2) For the previously synthesized compounds, the inhibitory activity of the compounds against PDE4B and against PDE4D was tested by using PDE-Glo Phosphodiesterase Assay Kit (promega, V1361). In short, in accordance with the instructions of the kit, a concentrated stock solution (10 mM) the compound to be tested was first prepared with DMSO solvent, and the concentrated stock solution was then diluted into 10× working solutions with a Reaction buffer provided in the kit. With the Reaction buffer, on ice, PDE4B enzyme (Enzo Life Sciences, BML-SE522-0020) was diluted to a concentration of 1 ng/μl to obtain a PDE4B enzyme working solution, and PDE4D enzyme (Enzo Life Sciences, BML-SE523-0020) was diluted to a concentration of 4 ng/μl to obtain a PDE4D enzyme working solution. 1.5 μl of the PDE4B working solution (or PDE4D working solution) and 1 μl of the compound working solution were added to wells of 384-well plate (Corning, CLS3707), and incubated with shaking at room temperature for 5 min, followed by adding 2.5 μl of cAMP (in Reaction buffer, 2 μM) per well, incubating with shaking at room temperature for 20 min. 2.5 μl/well of 1× Termination Buffer, and then 2.5 μl/well of 1× Detection Buffer were added, and further incubated with shaking at room temperature for 20 min. 10 μl/well of 1× Kinase-Glo was added, and the plate was incubated with shaking at room temperature for 10 min, and bioluminescence was measured with PheraStar instrument. The experimental results were plotted with GraphPad Prism software, and fitted to calculate IC50 of each compound.

PDE4D = molecular target: T2, PDE4D (Homo sapiens, UniProt Q08499); assay: PDE4D enzyme activity assay (PDE-Glo Phosphodiesterase Assay Kit); format: biochemical
T2 construct: purchased Enzo Life Sciences BML-SE523-0020
Protocol: as §2

[1] = system: LPS-stimulated TNF-α release; assay: LPS-stimulated TNF-α release in mice; format: in vivo, Balb/c mice; details: Mus musculus, oral 50 mg/kg (positive control 100 mg/kg), 1 mg/kg LPS i.p.
Protocol: 18 Balb/c mice (6 to 8 weeks) were randomly assigned to a blank group, a model group, and an administration group, 6 mice in each group. A vehicle (blank group, model group) or 50 mg/kg compound (administration group, where the dose for the positive control group was 100 mg/kg) was orally administrated. 30 min after the oral administration, PBS (blank group) or 1 mg/kg LPS (model group and administration group) was injected intraperitoneally. 90 min or 120 min after the intraperitoneal injection, blood was collected from the hearts of the mice, and still stood at 2-8° C. for 4 hours, and centrifuged at 5000 rpm for 10 min to collect the serum. The serum was stored at −80° C. for testing.
The serum TNF-α level was tested using a mouse TNF-α detection kit (Mouse TNFa ELISA kit: Biolegend, Cat: 430904). The inhibitory activity of the compounds against the TNF-α release was calculated based on the serum TNF-α level.
Inhibitory activity of compound %={1−(TNFα concentration of administration group−TNFα concentration of blank group)/(TNFα concentration of model group−TNFα concentration of blank group)}×100%.

[2] = Mouse pharmacokinetic test; format: in vivo, CD-1 mice; details: male, CD-1, plasma, oral gavage 10 mg/kg
Protocol: as §1
(§3) In the mouse pharmacokinetic test, 9 male CD-1 mice (20-25 g) were fasted overnight, and orally administered with 10 mg/kg of the compound to be tested. Bloods of 3 mice were collected at each time point, and bloods of 9 mice were alternately collected in total. In the pharmacokinetic test in canine, 3 male beagle dogs (8-10 kg) were fasted overnight, and orally administered with 5 mg/kg of the compound to be test. In the pharmacokinetic test of cynomolgus monkeys, 3 male cynomolgus monkeys (4 to 6.5 kg) were fasted overnight, and orally administered 20 mg/kg of the compound to be test. The remaining processes are the same as those of the rat pharmacokinetic test.

[3] = system: LPS-induced secretion of TNFα in human PBMCs; assay: LPS-induced secretion of TNFα in human PBMCs; format: cell-based; details: Homo sapiens, PBMC, 24 h, LPS 10 ng/ml
Protocol: Extraction process of peripheral blood mononuclear cells (PBMCs): one unit of human peripheral blood concentrate (concentrated from 200 cc peripheral blood) was sucked and added with 0.9% saline until a total volume reached 120 ml, and mixed homogenously. 15 ml Lymphoprep™ was added into 50 ml centrifuge tube, and then 30 ml of diluted blood concentrate was carefully and slowly added thereto, allowing the diluted blood to be stacked on the layered solution and preventing the diluted blood from being mixed into the separated solutions or breaking the surface of the separated solution, wherein a ratio of Lymphoprep™ to the diluted blood was 1:2. The centrifuge tubes were balanced and placed in a horizontal centrifuge (eppendorf, 5810R), and centrifuged at 800 g and 20° C. for 20 min. The centrifuge tubes were carefully taken out. PBMCs were absorbed by directly inserting the Pasteur pipette deep into the buffy coat. The obtained PBMCs were gently pipetted with 3 times the volume of 0.9% normal saline or PBS (without calcium or magnesium ions) to mix homogenously. After that, the cells were centrifuged at 250 g and 20° C. for 10 min, the supernatant was removed to remove the platelets remaining in the cell suspension. The obtained cell pellet was resuspended in 20 ml of PBS, and counted using trypan blue.
Compound screening by using PBMCs: the PBMC suspension obtained above was centrifuged to remove PBS, then resuspended in complete medium (RPMI1640+10% FBS+1% P/S) and counted. 100 μL/well of the cells was seeded at 5×10^4/well. Each of the compounds to be screened was prepared as 4 times the final concentration, which was added to the cells at 50 μL/well. The compound was pre-incubated for 30 min in advance of being added to the cells. Meanwhile, control wells to which the compound was not added were provided. A final stimulation concentration of LPS was 10 ng/ml, and LPS was formulated as 4 times the final stimulation concentration, and added to the cells at 50 μL/well. Meanwhile, control wells, i.e., wells without LPS were provided. The cells were incubated for 24 h, and 10% of the supernatant was collected for detection. The obtained supernatant was detected using Invitrogen's Human TNF-α kit (REF: 88-7346-88).

[4] = Pharmacokinetic test in canine; format: in vivo, beagle dogs; details: male, beagle, dog, plasma, oral gavage 5 mg/kg
Protocol: as §1, §3

[5] = 1.5 h, blood 90 min after LPS, read-out: Inhibition rate (%) of LPS-stimulated TNF-α release, 90 min
[6] = 2 h, blood 120 min after LPS, read-out: Inhibition rate (%) of LPS-stimulated TNF-α release, 120 min

T1 sequence (Q07343 whole entry): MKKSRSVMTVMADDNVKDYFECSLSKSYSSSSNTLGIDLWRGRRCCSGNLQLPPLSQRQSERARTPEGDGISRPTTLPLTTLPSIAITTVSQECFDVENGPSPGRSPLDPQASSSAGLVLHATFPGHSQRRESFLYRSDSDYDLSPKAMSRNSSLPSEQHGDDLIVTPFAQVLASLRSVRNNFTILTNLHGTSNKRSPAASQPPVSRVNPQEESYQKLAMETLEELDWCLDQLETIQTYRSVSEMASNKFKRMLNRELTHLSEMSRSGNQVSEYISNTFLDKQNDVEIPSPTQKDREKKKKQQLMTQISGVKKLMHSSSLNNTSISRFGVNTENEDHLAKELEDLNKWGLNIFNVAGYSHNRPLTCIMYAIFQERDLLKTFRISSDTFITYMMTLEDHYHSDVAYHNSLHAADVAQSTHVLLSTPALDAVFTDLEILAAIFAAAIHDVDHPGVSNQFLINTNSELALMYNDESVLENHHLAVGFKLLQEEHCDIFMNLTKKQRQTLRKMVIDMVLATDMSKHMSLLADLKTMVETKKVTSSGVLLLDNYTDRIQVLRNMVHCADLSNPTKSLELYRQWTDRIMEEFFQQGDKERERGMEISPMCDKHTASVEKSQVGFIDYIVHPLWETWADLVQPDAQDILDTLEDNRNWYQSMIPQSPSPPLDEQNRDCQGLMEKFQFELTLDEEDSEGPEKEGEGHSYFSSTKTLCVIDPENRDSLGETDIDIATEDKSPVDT
T2 sequence (Q08499 whole entry): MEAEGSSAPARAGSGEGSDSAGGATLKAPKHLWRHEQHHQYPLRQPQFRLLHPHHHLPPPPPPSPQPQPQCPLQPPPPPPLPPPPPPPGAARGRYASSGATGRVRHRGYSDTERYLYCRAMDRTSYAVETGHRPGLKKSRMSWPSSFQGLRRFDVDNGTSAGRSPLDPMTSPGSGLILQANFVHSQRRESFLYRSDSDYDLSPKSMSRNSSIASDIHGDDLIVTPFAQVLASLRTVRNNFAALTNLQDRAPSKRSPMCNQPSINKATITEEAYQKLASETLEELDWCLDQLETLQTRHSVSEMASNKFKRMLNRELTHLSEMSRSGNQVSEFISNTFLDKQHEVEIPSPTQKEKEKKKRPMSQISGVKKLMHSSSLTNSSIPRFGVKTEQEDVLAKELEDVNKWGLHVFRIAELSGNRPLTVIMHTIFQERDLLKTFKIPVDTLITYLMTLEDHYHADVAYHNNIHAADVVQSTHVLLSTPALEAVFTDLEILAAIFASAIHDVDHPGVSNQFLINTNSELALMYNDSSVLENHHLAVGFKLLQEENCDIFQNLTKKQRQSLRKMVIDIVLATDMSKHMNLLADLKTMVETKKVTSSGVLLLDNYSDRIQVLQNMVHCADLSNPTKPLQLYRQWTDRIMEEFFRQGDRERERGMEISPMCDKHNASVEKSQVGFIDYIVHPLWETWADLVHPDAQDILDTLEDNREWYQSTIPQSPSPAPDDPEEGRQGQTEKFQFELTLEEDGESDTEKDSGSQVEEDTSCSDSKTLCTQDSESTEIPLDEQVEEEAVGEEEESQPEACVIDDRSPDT

Row | SMILES | AUC(0-t) (Rat pharmacokinetic test) [ng·h/mL] | Cmax (Rat pharmacokinetic test) [ng/mL] | Tmax (Rat pharmacokinetic test) [min] | IC50 (PDE4B) [nM] | IC50 (PDE4D)/IC50 (PDE4B) (PDE4B) | IC50 (PDE4D) [nM] | AUC(0-t) [2] [ng·h/mL] | Cmax [2] [ng/mL] | Tmax [2] [min] | AUC(0-t) [4] [ng·h/mL] | Cmax [4] [ng/mL] | Tmax [4] [min] | inhibition in vivo at 50 mg/kg [1, 5] [%] | inhibition in vivo at 50 mg/kg [1, 6] [%] | IC50 [3] [nM]
1 | COc1ccc([C@@H]2CN(C(=O)[C@@H](O)CO)C[C@@]2(C)[C@@H](C)O)cc1OC1CN(c2cc(C#N)c(C)cn2)C1 [Compound 001, 2-(3-(5-((3S,4S)-1-((S)-2,3-dihydroxypropanoyl)-4-((R)-1-hydroxyethyl)-4-methylpyrrolidin-3-yl)-2-methoxyphenoxy)azetidin-1-yl)-5-methylisonicotinonitrile] | 23.5 | 22.5 | 19.8 | 0.91 | 0.74 | 0.67 | 311 | 339 | 15 | – | – | – | 53.6 | 39.5 | 0.36
2 | COc1ccc([C@@H]2CN(C(=O)[C@@H](O)CO)C[C@@]2(C)[C@@H](C)O)cc1OC1CN(c2cc(Cl)c(C)cn2)C1 [Compound 002, (S)-1-((3S,4S)-4-(3-((1-(4-chloro-5-methylpyridin-2-yl)azetidin-3-yl)oxy)-4-methoxyphenyl)-3-((R)-1-hydroxyethyl)-3-methylpyrrolidin-1-yl)-2,3-dihydroxypropan-1-one] | 103 | 41.6 | 19.8 | 0.43 | 0.37 | 0.16 | 386 | 355 | 15 | 534 | 198 | 60 | – | 66.2 | 0.56
3 | CCOc1ccc(N2CC(Oc3cc([C@@H]4CN(C(=O)[C@@H](O)CO)C[C@@]4(C)[C@@H](C)O)ccc3OC)C2)nc1 [Compound 022, (S)-1-((3S,4S)-4-(3-((1-(5-ethoxypyridin-2-yl)azetidin-3-yl)oxy)-4-methoxyphenyl)-3-((R)-1-hydroxyethyl)-3-methylpyrrolidin-1-yl)-2,3-dihydroxypropan-1-one] | 410 | 221 | 19.8 | 0.75 | 1.57 | 1.18 | 215 | 186 | 15 | – | – | – | 60.7 | – | 1.01

More lines, main results first:

Row | AUC(0-t) (Rat pharmacokinetic test) [ng·h/mL] | Cmax (Rat pharmacokinetic test) [ng/mL] | Tmax (Rat pharmacokinetic test) [min] | IC50 (PDE4B) [nM] | IC50 (PDE4D)/IC50 (PDE4B) (PDE4B) | IC50 (PDE4D) [nM] | AUC(0-t) [2] [ng·h/mL] | Cmax [2] [ng/mL] | Tmax [2] [min] | AUC(0-t) [4] [ng·h/mL] | Cmax [4] [ng/mL] | Tmax [4] [min] | SMILES | inhibition in vivo at 50 mg/kg [1, 5] [%] | inhibition in vivo at 50 mg/kg [1, 6] [%] | IC50 [3] [nM]
4 | 443 | 133 | 15 | 1.46 | 2.45 | 3.58 | 625 | 298 | 30 | 1760 | 534 | 30 | COc1ccc([C@@H]2CN(C(=O)[C@@H](O)CO)C[C@@]2(C)[C@@H](C)O)cc1OC1CN(c2cc(C)c(C)cn2)C1 [Compound 008, (S)-1-((3S,4S)-4-(3-((1-(4,5-dimethylpyridin-2-yl)azetidin-3-yl)oxy)-4-methoxyphenyl)-3-((R)-1-hydroxyethyl)-3-methylpyrrolidin-1-yl)-2,3-dihydroxypropan-1-one] | – | 63 | 1.81
5 | 95.3 | 40.4 | 19.8 | 1.9 | 0.50 | 0.95 | 645 | 314 | 15 | 1640 | 413 | 49.8 | COc1ccc([C@@H]2CN(C(=O)[C@@H](O)CO)C[C@@]2(C)[C@@H](C)O)cc1OC1CN(c2cc(C)c(Cl)cn2)C1 [Compound 010, (S)-1-((3S,4S)-4-(3-((1-(5-chloro-4-methylpyridin-2-yl)azetidin-3-yl)oxy)-4-methoxyphenyl)-3-((R)-1-hydroxyethyl)-3-methylpyrrolidin-1-yl)-2,3-dihydroxypropan-1-one] | 47.6 | 65.4 | 1.05
